# Experimental data from patent US20060229293A1, “Compositions for the treatment of hepatitis C and methods for using compositions for the treatment of hepatitis C” (Addiction Research Institute, Inc., priority 2005, published 2006).
# How the values were obtained:
# Assay type in all cases: in vivo, human
# [1] = test system: HCV; experiment: Case report, Example 1: HCV positive heroin user given ibogaine HCl; conditions: person, 25 mg/kg
# Procedure: A person diagnosed as HCV positive and using ½ gram of heroin per day was administered 25 mg/kg of ibogaine HCl. Following the administration of ibogaine, heroin use ceased along with swelling of the liver and pain in the area of the liver.
# [2] = test system: HCV RNA genotype 3; experiment: Case report, Example 4: HCV RNA after ibogaine HCl over 48 hours; conditions: total of 27 mg/kg over 48 hours
# Procedure: A person weighing 160 lbs tested positive HCV RNA genotype 3. RNA IU/mL was 12,600,000. Subject was administered a total of 27 mg/kg of ibogaine HCl over a period of 48 hours in the following regimen: 2 mg/kg, 2 mg/kg, 2 mg/kg, 2 mg/kg, 2 mg/kg, 2 mg/kg, 12 mg/kg, and 3 mg/kg. HCV RNA IU/mL was reduced to 50,100. Prior to ibogaine therapy patient's urine was dark and stool light. Post treatment color of urine and stool were normal.
# [3] = test system: HCV; experiment: Case report, Example 2: liver enzyme levels in HCV positive after ibogaine HCl; conditions: person, 14 mg/kg self-administered
# Procedure: A person testing positive for HCV and dependent on heroin and methadone self-administered 14 mg/kg of ibogaine HCl. AST was reduced from pretreatment level of 201 to post treatment level of 25. ALT was reduced from pretreatment level of 410 to post treatment level of 50. GGT level was reduced from 155 to 33.
# [4] = test system: HCV RNA genotype 1; experiment: Case report, Example 3: HCV RNA and liver enzymes after an escalating dose regimen of ibogaine HCl
# Procedure: A person testing positive for HCV RNA genotype 1, administered the following dose regimen of ibogaine HCl. Subject weighed 79 kg. Doses administered were as total doses and not mg/kg. Day 1: 10 mg ibogaine HCl. Day 2: 20 mg ibogaine HCl. Day 3: 20 mg ibogaine HCl. Day 4: 30 mg ibogaine HCl. Day 5: 50 mg ibogaine HCl. Day 6: 75 mg ibogaine HCl. Day 8: 100 mg ibogaine HCl. Day 10: 150 mg ibogaine HCl. Day 14: 300 mg ibogaine HCl. HCV RNA IU/mL was reduced from 780,000 to 644,000. Pretreatment Alkaline Phosphatase was 99, AST was 103 and ALT 195. Post treatment Alkaline Phosphatase 88, AST 89 and ALT 127. An additional 250 mg of ibogaine HCl further reduced HCV RNA IU/mL to 384,000. A final dose within this regimen of 250 mg ibogaine was administered reducing the HCV RNA IU/mL to 154,000.
substance,measurement,setting,value
ibogaine HCl,pain in the area of the liver following administration,[1],ceased
same,swelling of the liver following administration,[1],ceased
same,heroin use following administration,[1]; using ½ gram of heroin per day,ceased
same,HCV RNA after treatment,"[2]; person, 160 lbs, genotype 3, before treatment 12,600,000","50,100 IU/mL"
same,color of urine and stool post treatment,[2]; prior to therapy urine dark and stool light,normal
same,AST post treatment level,[3]; pretreatment level 201,25
same,ALT post treatment level,[3]; pretreatment level 410,50
same,GGT level post treatment,[3]; reduced from 155,33
same,HCV RNA after an additional dose,"[4]; additional 250 mg after the Day 1-14 regimen, previous level 644,000","384,000 IU/mL"
same,HCV RNA after the final dose,"[4]; final dose of 250 mg within the regimen, previous level 384,000","154,000 IU/mL"
same,HCV RNA after regimen,"[4]; person, 79 kg, genotype 1, total doses 10-300 mg on Days 1-14, reduced from 780,000","644,000 IU/mL"
same,Alkaline Phosphatase post treatment,"[4]; person, genotype 1, Day 1-14 regimen, pretreatment 99",88
same,AST post treatment,"[4]; person, genotype 1, Day 1-14 regimen, pretreatment 103",89
same,ALT post treatment,"[4]; person, genotype 1, Day 1-14 regimen, pretreatment 195",127
